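A five-concentration, 48-hour dose response in 96-well plates underlies each endpoint, interpolated linearly between surrounding concentrations. GI50 is the concentration that inhibits growth by half.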 Calls of active or inactive are those of the source. No stated cut-off is given here; in the data, active = GI50 up to about 1.1 µM and inactive = higher.
Experiments:
Test in all cases: NCI anticancer screen, dose series, 48 h
[1] = system: IGROV-1
[2] = system: SK-MEL-5
[3] = system: U-251
[4] = system: K562
[5] = system: T47D
[6] = system: HOP-92
[7] = system: 786-0
[8] = system: OVCAR-4
[9] = system: MOLT-4
[10] = system: SNB-19
[11] = system: SR
[12] = system: MDA-MB-231
[13] = system: UO-31
[14] = system: SW-620
[15] = system: RPMI-8226
[16] = system: OVCAR-5
[17] = system: A549
[18] = system: SK-OV-3
[19] = system: EKVX
[20] = system: Malme-3M

Row | SMILES | GI50 [1] | GI50 [2] | GI50 [3] | GI50 [4] | GI50 [5] | GI50 [6] | GI50 [7] | GI50 [8] | GI50 [9] | GI50 [10] | GI50 [11] | GI50 [12] | GI50 [13] | GI50 [14] | GI50 [15] | GI50 [16] | GI50 [17] | GI50 [18] | GI50 [19] | GI50 [20]
1 | OCc1ccc(-c2ccc(-c3ccc(CO)s3)o2)s1 | 0.0373 µM (active) | 20.7 µM (inactive) | 0.0646 µM (active) | 0.596 µM (active) | 0.31 µM (active) | 32.6 µM (inactive) | 4.6 µM (inactive) | 0.212 µM (active) | 3.21 µM (inactive) | 28.8 µM (inactive) | 3.6 µM (inactive) | 41.4 µM (inactive) | 35.5 µM (inactive) | 0.224 µM (active) | 2.99 µM (inactive) | 0.02 µM (active) | 2.36 µM (inactive) | 7.06 µM (inactive) | 26.3 µM (inactive) | 57 µM (inactive)
2 | CC(=O)C1=C(O)/C(=C\c2ccco2)OC1=O | > 10 µM (inactive) | > 10 µM (inactive) | > 10 µM (inactive) | > 10 µM (inactive) | > 10 µM (inactive) | > 10 µM (inactive) | > 10 µM (inactive) | > 10 µM (inactive) | > 10 µM (inactive) | > 10 µM (inactive) | > 10 µM (inactive) | > 10 µM (inactive) | > 10 µM (inactive) | > 10 µM (inactive) | > 10 µM (inactive) | > 10 µM (inactive) | > 10 µM (inactive) | > 10 µM (inactive) | > 10 µM (inactive) | > 10 µM (inactive)
3 | C=CCNC1=C2C[C@@H](C)C[C@@H](OC)C(OC(=O)CCCN(C)C)[C@H](C)/C=C(\C)[C@@H](OC(N)=O)[C@H](OC)/C=C\C=C(/C)C(=O)NC(=CC1=O)C2=O (stereo not given in full) | 8.95 µM (inactive) | 2.51 µM (inactive) | 10.6 µM (inactive) | 4.06 µM (inactive) | 11.5 µM (inactive) | 17.7 µM (inactive) | 12.4 µM (inactive) | 9.14 µM (inactive) | 5.75 µM (inactive) | 13.8 µM (inactive) | 2.59 µM (inactive) | 5.45 µM (inactive) | 13.6 µM (inactive) | 4.48 µM (inactive) | 6.49 µM (inactive) | 15.2 µM (inactive) | 3.85 µM (inactive) | 2.37 µM (inactive) | 13.1 µM (inactive) | 4.16 µM (inactive)

Reference: ChEMBL document CHEMBL1201862, “PubChem BioAssay data set” (2004)
